Experiments:
[1] = IVIVE: steady-state concentration (Css), generic HTTK model; set-up: species or system human; details: for Css: human steady-state concentration, 1 mg/kg/day exposure rate, loss of parent compound only
Method in brief: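 Human Css estimated by IVIVE: plasma protein binding converted to blood fraction unbound via blood-to-plasma partitioning, and experimental Clint scaled with liver scalars to whole liver clearance. AEDs then derived by reverse dosimetry from Css and PFAS in vitro POD, defined as fifth-percentile AC50.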

plasma protein = details: human plasma; cited from earlier work
[2] = system: pooled primary human hepatocyte suspensions; assay: Bayesian (MCMC, invitroTKstats) analysis of hepatic clearance data; details: Level-4 Bayesian estimate, posterior median; Clint.1 series (Clint.10 all NA)
Excerpt: Markov Chain Monte Carlo was employed in a Bayesian analysis to estimate uncertainty of the hepatic clearance point measures as previously described, but with some modifications [10]. Briefly, after organizing PFAS-level data into a single file, the relationship between the relevant measurement process parameters was described in a graphic model in JAGS language [13] interfaced through R. For hepatic clearance data, the model describes the PFAS-specific mass spectrometric response factor between analyte peak ratio (to internal standard) and chemical concentration. […] The assumed prior for whether the chemical degraded abiotically in vitro followed a Bernoulli distribution with a 5% chance of abiotic degradation. Separate biotic and abiotic components for chemical elimination were estimated, each with a slope following an assumed uniform prior distribution bounded between the zero and the -log (limit of quantitation/Ctest). In scenarios where an external calibration without internal standard was used, the response factor was calculated using the analyte peak alone, introducing additional uncertainty due to the inability to normalize for recovery issues. The model was analyzed jointly by JAGS using five Markov chains. Convergence was identified by requiring the five chains to be consistent, as indicated by the potential scale reduction factor [14] being less than 1.1. The analysis was performed using EPA-developed R package invitroTKstats, available upon request.

[3] = Administered equivalent dose (AED) by reverse dosimetry; set-up: species or system human; details: from Css and AC50 POD by reverse dosimetry
Procedure: IVIVE was performed as previously described to calculate human steady-state concentrations (Css). Briefly, experimental plasma protein binding data presented elsewhere were transformed to fraction unbound in blood using blood-to-plasma partitioning values. Experimental Clint values generated here are used in conjunction with relevant liver scalars to scale up to estimate whole liver clearance. […] Once Css values were established, these were used with the PFAS-specific in vitro POD data to calculate the administered equivalent doses (AEDs) using reverse dosimetry. […] The fifth-percentile AC50 value was used to define the in vitro POD. All relevant inputs, scalars, and calculations are provided in Supplementary Information, as indicated in the results.

[4] = system: pooled primary human hepatocyte suspensions; assay: Hepatic clearance assay (substrate depletion, LC-MS); details: for Unadj Clint: unadjusted hepatic intrinsic clearance, Table S4; for In Vitro Clint: Table 3, 0 = no significant clearance
Method in brief: (§1)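 Substrate depletion at 1 μM PFAS in pooled cryopreserved human hepatocytes (~0.5 × 10^6 viable cells/mL, 50-donor pool), 37 °C with shaking, sampled 0–240 min in triplicate. Quantified by LC-MS in negative ion mode against matrix-matched calibration; media-only or heat-inactivated cells as nonmetabolic-loss controls.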

[5] = as above; details: both, human
Method in brief: as §1

[6] = pooled primary human hepatocyte suspensions, in µL/min/10^6 cells
[7] = pooled human hepatocyte suspension, 1 μM
[8] = Assuming 1 mg/kg/day dose rate, BW 70 kg

Question: What does the source list for `O=C(O)C(F)(F)C(F)(F)C(F)(F)C(F)(F)C(F)(F)C(F)(F)C(F)F` [8H-PFOA, 8H-Perfluorooctanoic acid]?
Answer: Css [1]: 290.23 µM; fup (fraction unbound in plasma) (plasma protein): 0.0021; Clint.1.Med [2]: 0; AED [3]: 0.04 mg/kg/day; Unadj Clint [4, 6]: 0.00

Question: Which results are given for `O=S(=O)(O)C(F)(F)C(F)(F)C(F)(F)C(F)(F)C(F)(F)C(F)(F)F` [PFHxS, Perfluorohexanesulfonic acid]?
Answer: Css [1]: 670.49 µM; fup (fraction unbound in plasma) (plasma protein): 0.0009; AED [3]: 0.033 mg/kg/day; Unadj Clint [4, 6]: 1.52

Question: For `O=C(O)C(F)(F)C(F)(F)C(F)(F)C(F)(F)C(F)(F)C(F)(F)F` [PFHpA, Perfluoroheptanoic acid], which Css [1] is on record?
Answer: 1657.68 µM

Question: And the “fup (fraction unbound in plasma)” value (plasma protein)?
Answer: 0.0004

Question: And the AED [3]?
Answer: 0.01 mg/kg/day

Question: And the “Unadj Clint” value [4, 6]?
Answer: 3.12

Question: Which results are given for `O=S(=O)(O)CCC(F)(F)C(F)(F)C(F)(F)C(F)(F)C(F)(F)C(F)(F)C(F)(F)C(F)(F)F` [8:2 FTS, 8:2 Fluorotelomer sulfonic acid]?
Answer: hepatocyte CLint at 1 μM ([5]; cryopreserved pooled primary human hepatocyte suspensions): 1.53 µL/min/1e6 cells; Unadj Clint [4, 6]: 1.53

Question: With `O=C(O)C(F)(F)C(F)(F)C(F)(F)C(F)(F)C(F)(F)C(F)(F)C(F)(F)C(F)(F)C(F)(F)C(F)F` [11H-PFUnDA, 11-H-Perfluoroundecanoic acid] as the molecule, how does the Css [1] read?
Answer: 294.69 µM

Question: And the “fup (fraction unbound in plasma)” value (plasma protein)?
Answer: 0.0015

Question: And the AED [3]?
Answer: 0.03 mg/kg/day

Question: And the “Unadj Clint” value [4, 6]?
Answer: 0.00

Question: With `O=C(O)C(F)(F)C(F)(F)C(F)(F)C(F)(F)C(F)(F)C(F)(F)C(F)(F)C(F)(F)F` [PFNA, Perfluorononanoic acid] as the molecule, how does the Css [1] read?
Answer: 325.11 µM

Question: And the “fup (fraction unbound in plasma)” value (plasma protein)?
Answer: 0.0016

Question: What about the AED [3] of the same molecule?
Answer: 0.05 mg/kg/day

Question: What about the “Unadj Clint” value [4, 6] of the same molecule?
Answer: 0.83

Question: Which results are given for `O=S(=O)(O)C(F)(F)C(F)(F)C(F)(F)C(F)(F)C(F)(F)C(F)(F)C(F)(F)F` [PFHpS, Perfluoroheptanesulfonic acid]?
Answer: Css [1]: 893.98 µM; fup (fraction unbound in plasma) (plasma protein): 0.0006; AED [3]: 0.02 mg/kg/day; Unadj Clint [4, 6]: 1.23

Question: With `O=C(O)C(F)(F)C(F)(F)C(F)(F)C(F)(F)C(F)(F)C(F)(F)C(F)(F)C(F)(F)C(F)(F)F` [PFDA, Perfluorodecanoic acid] as the molecule, how does the Css [1] read?
Answer: 173.91 µM

Question: What about the “fup (fraction unbound in plasma)” value (plasma protein) of the same molecule?
Answer: 0.0027

Question: And the AED [3]?
Answer: 0.06 mg/kg/day

Question: What about the “Unadj Clint” value [4, 6] of the same molecule?
Answer: 0.00

Question: With `O=C(O)C(F)(F)C(F)(F)C(F)(F)OC(F)(C(F)(F)F)C(F)(F)F` [PFPE-1, Perfluoro-4-isopropoxybutanoic acid] as the molecule, how does the hepatocyte CLint at 1 μM ([5]; hepatocytes) read?
Answer: 5.78 µL/min/1e6 cells

Question: And the “Unadj Clint” value [4, 6]?
Answer: 5.78

Question: For `O=C(O)C(F)(F)C(F)(F)C(F)(F)C(F)(F)C(F)(F)C(F)(F)C(F)(F)C(F)F` [9H-PFNA, 9-H-Perfluorononanoic acid], which Css [1] is on record?
Answer: 601.28 µM

Question: What about the “fup (fraction unbound in plasma)” value (plasma protein) of the same molecule?
Answer: 0.0009

Question: And the AED [3]?
Answer: 0.004 mg/kg/day

Question: What about the “Unadj Clint” value [4, 6] of the same molecule?
Answer: 0.00

Question: Which Css [1] does the source give for `O=C(O)C(F)(F)C(F)(F)C(F)(F)C(F)(F)C(F)(F)F` [PFHxA, Perfluorohexanoic acid] here?
Answer: 113.04 µM

Question: And the “fup (fraction unbound in plasma)” value (plasma protein)?
Answer: 0.0068

Question: And the AED [3]?
Answer: 0.08 mg/kg/day

Question: And the “Unadj Clint” value [4, 6]?
Answer: 1.62

Question: With `O=S(=O)(O)CCC(F)(F)C(F)(F)C(F)(F)C(F)(F)F` [4:2 FTS, 4:2 Fluorotelomer sulfonic acid] as the molecule, how does the Css [1] read?
Answer: 19.12 µM

Question: And the “fup (fraction unbound in plasma)” value (plasma protein)?
Answer: 0.0050

Question: What about the hepatocyte CLint at 1 μM ([5]; hepatocytes) of the same molecule?
Answer: 4.28 µL/min/1e6 cells

Question: And the “In Vitro Clint” value [4, 7]?
Answer: 4.28 μL/min/million cells

Question: What about the “Unadj Clint” value [4, 6] of the same molecule?
Answer: 4.28

Question: With `O=C(O)CCC(F)(F)C(F)(F)C(F)(F)C(F)(F)C(F)(F)C(F)(F)F` [6:3 FTCA, 6:3 Fluorotelomer carboxylic acid] as the molecule, how does the “Css (mg/L)” value [1, 8] read?
Answer: 11.76 mg/L

Question: What about the “Css (uM)” value [1, 8] of the same molecule?
Answer: 30.01 µM

Question: And the “CLhep” value ([1]; QL 1500000 uL/min)?
Answer: 0.222 L/h

Question: And the Fub ([1]; fub=fup/(B:P), Fub set to 1 if needed)?
Answer: 0.004182

Question: What about the Css [1] of the same molecule?
Answer: 30.01 µM

Question: And the “CLint” value ([1]; scaled to whole liver: HPGL 110 mill cells/g, Vl 1596 g)?
Answer: 886578 µL/min

Question: What about the “fup (fraction unbound in plasma)” value (plasma protein) of the same molecule?
Answer: 0.0023

Question: And the Clint.1.Med [2]?
Answer: 0

Question: And the AED [3]?
Answer: 0.18 mg/kg/day

Question: And the “CLint for HTTK” value ([4]; CLint value carried into HTTK/IVIVE, in µL/min/10^6 cells)?
Answer: 5.05

Question: What about the CLint ([4]; Table 2, pooled human hepatocyte suspension, 1 μM, 0-240 min, 0 = slope not significant (p>0.05)) of the same molecule?
Answer: 5.05 μL/min/million cells

Question: What about the “In Vitro Clint” value [4, 7] of the same molecule?
Answer: 5.05 μL/min/million cells

Question: What about the “in vitro CLint exp assay” value [4, 6] of the same molecule?
Answer: 5.05
